Measured values taken from patent publication US10532106B2 (priority 2014, dated 2020).
Numbered stars: 1 amine (or outer) side, 2 acyl side, 3 side chain; on linkers, the order of the positions; unused ones are H or OH. Bridge positions count the residues as written; N and C are the ends. Square brackets hold non-standard residues; d marks the D form. Peptide text beside a SMILES is read from it. TBMB = c1c(C[*:1])cc(C[*:3])cc1C[*:2]; Sar = CNCC(=O)O

What was measured:
[1] = target: T1, MT1-MMP hemopexin domain (Homo sapiens, UniProt P50281); test: Competition assay using fluorescence polarisation; type: binding; conditions: murine, dog, cynomolgus and human MT1-MMP
T1 construct: residues Cys319-Gly511 from the human gene; His6 (N); made in house; host or cells: HEK293 (transient), pEXPR-IBA42 vector
Procedure, shortened: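 Pre-formed PEX–fluorescent tracer complex titrated with non-fluoresceinated bicyclic peptide, which displaces tracer and lowers fluorescence polarisation. Competitor Kd obtained by fitting to the cubic-equation solution for tracer/titrant/protein equilibria, using tracer Kd from separate direct-binding FP.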

[2] = Plasma stability, quantitative LC-MS (Method #2); type: in vitro ADME, mouse
Method: […] […] Prior to LC-MS analysis, samples were defrosted, and mixed with 3 volumes (here, 120 μL) of 1:1 acetonitrile/MeOH water. The milky suspensions were centrifuged for 30 min at 13000 rpm, and peptide-containing supernatants were quantitated for doubly/triply charged species and MS/MS fragments thereof using a Waters Xevo TQ-D instrument, while using a plasma extracted standard curve of the same peptides as a reference. The half-life of degradation in plasma was used to assess the comparative stability of the molecules.

[3] = Plasma stability, quantitative LC-MS; type: in vitro ADME, rat; conditions: Table 16; incubation up to 24 hrs, 4 μM
[4] = Degradation products in mouse plasma by MALDI-TOF (Method #1); type: in vitro ADME
Method: A rapid plasma stability profiling assay was developed that employed mass spectrometric detection (MALDI-TOF, Voyager DE, Applied Biosystems) of the parent mass as well as plasma-protease induced fragments thereof. By assessing the nature of the fragments, preferred cleavage sites can be determined. Here, a 1-1.5 mM peptide stock (in DMSO) was directly diluted into mouse/rat/human plasma (Sera labs, using citrate as anticoagulant), giving a final concentration of 50 μM peptide, and incubated for up to 48 hrs at 37° C. 5 μL samples were taken at appropriate time points and frozen at −80° C. For analysis, the samples were defrosted, mixed with 25 μL of 3:3:1 acetonitrile:methanol:water, and centrifuged at 13 k for 5 min. 5 μL of the peptide-containing supernatant was aspirated and mixed with 30 mM ammonium bicarbonate in a 1:1 mixture of acetonitrile:H2O. 1 μL of this was then spotted on the MALDI plate, dried, and Matrix (alpha-cyanocinnamic acid, Sigma, prepared as a saturated solution in 1:1 acetonitrile:water containing 0.1% trifluoroacetic acid) was layered over the sample (1 μL), dried and analysed using the MALDI TOF. […]
In an effort to understand the chemical nature of the degradation of 17-69-07-N219 in mouse plasma, samples were analysed using MALDI-TOF for any potential degradation products.

## CC[C@H](C)[C@@H]1NC(=O)[C@H](CC(=O)O)NC(=O)[C@H](Cc2ccc(O)cc2)NC(=O)[C@H](Cc2ccccc2)NC(=O)[C@H](CC(=O)O)NC(=O)[C@H](CCC(=O)O)NC(=O)[C@@H]2CSCc3cc(cc(c3)CSC[C@H](NC(=O)[C@H](C)NC(=O)CN(C)C(=O)CN(C)C(=O)CN(C)C(=O)CN(C)C(=O)CN(C)C(=O)CN(C)C(=O)CN(C)C(=O)CN(C)C(=O)CN(C)C(=O)CN(C)C(=O)CN)C(=O)N[C@@H](Cc3ccc(O)cc3)C(=O)N[C@@H](CC(N)=O)C(=O)N[C@@H](CCC(=O)O)C(=O)N[C@@H](Cc3ccccc3)C(=O)NCC(=O)N2)CSC[C@@H](C(N)=O)NC1=O [17-69-07-N219, G-Sar10-A-(17-69-07)] (H-G[Sar][Sar][Sar][Sar][Sar][Sar][Sar][Sar][Sar][Sar]ACYNEFGCEDFYDIC-NH2; linker 13-19-26 via TBMB)
[1]
  species cross-reactivity: fully cross reactive
[2]; Table 16, incubation up to 24 hrs, 4 μM
  t1/2 (hrs) (mouse plasma): 3.9 ± 0.3 h
[2]; ex vivo mouse plasma at 37° C. (FIG. 1, FIG. 3A)
  half-life in mouse plasma: 6 h
[3]
  t1/2 (hrs) (rat plasma): 3.7 ± 0^ hrs
[4]
  degradation products: possible loss of tyrosine
